# According to ChEMBL document CHEMBL3112399, “Discovery of pyrazolo[3,4-d]pyrimidine derivatives as GPR119 agonists” (Bioorg Med Chem Lett, 2014):
# pEC50, pIC50: −log10 of the molar value. Calls of active or inactive are those of the source. No cut-off for these calls is given here.
# Legend:
# Cytochrome P450 3A4 = Cytochrome P450 3A4 (Homo sapiens, UniProt P08684); test: Inhibition of CYP3A4 (unknown origin); assay type: ADME
# hERG (KCNH2) = hERG (KCNH2) (Homo sapiens, UniProt Q12809); test: Inhibition of human ERG channel
# Chain of hERG (KCNH2) (Q12809 whole entry): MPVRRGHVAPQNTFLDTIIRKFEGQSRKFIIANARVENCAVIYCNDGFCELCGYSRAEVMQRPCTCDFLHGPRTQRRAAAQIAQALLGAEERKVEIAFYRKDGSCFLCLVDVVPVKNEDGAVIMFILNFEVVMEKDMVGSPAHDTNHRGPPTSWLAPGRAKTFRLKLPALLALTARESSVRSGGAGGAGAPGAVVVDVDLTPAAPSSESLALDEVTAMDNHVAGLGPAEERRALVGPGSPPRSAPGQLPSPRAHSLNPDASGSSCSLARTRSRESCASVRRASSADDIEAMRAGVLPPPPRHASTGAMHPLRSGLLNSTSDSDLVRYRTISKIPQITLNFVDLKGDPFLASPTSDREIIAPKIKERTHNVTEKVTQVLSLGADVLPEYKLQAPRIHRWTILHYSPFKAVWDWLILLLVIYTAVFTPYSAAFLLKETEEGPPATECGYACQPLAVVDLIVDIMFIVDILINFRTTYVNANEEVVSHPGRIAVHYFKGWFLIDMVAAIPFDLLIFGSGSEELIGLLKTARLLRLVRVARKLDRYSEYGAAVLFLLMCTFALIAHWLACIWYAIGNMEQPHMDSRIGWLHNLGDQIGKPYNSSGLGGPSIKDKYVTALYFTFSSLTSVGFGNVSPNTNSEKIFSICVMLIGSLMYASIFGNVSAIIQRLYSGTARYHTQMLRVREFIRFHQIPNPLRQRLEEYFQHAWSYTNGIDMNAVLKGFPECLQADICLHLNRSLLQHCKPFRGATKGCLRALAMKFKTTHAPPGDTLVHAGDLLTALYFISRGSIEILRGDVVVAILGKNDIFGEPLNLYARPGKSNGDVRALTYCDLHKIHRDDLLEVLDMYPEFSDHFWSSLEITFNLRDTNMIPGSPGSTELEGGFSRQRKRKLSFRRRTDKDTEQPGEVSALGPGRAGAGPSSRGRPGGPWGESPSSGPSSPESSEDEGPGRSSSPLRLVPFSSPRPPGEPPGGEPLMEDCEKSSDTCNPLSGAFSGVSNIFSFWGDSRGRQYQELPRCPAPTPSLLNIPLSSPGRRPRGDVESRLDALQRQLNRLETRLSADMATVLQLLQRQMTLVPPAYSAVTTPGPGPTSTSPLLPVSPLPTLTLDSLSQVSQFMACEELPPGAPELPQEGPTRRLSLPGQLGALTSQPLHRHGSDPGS
# [1] = Clearance in mouse liver microsomes; assay type: ADME, Microsome; conditions: read-out: CLH
# Cytochrome P450 2C9 = Cytochrome P450 2C9 (Homo sapiens, UniProt P11712); test: Inhibition of CYP2C9 (unknown origin); assay type: ADME
# Chain of Cytochrome P450 2C9 (P11712 whole entry): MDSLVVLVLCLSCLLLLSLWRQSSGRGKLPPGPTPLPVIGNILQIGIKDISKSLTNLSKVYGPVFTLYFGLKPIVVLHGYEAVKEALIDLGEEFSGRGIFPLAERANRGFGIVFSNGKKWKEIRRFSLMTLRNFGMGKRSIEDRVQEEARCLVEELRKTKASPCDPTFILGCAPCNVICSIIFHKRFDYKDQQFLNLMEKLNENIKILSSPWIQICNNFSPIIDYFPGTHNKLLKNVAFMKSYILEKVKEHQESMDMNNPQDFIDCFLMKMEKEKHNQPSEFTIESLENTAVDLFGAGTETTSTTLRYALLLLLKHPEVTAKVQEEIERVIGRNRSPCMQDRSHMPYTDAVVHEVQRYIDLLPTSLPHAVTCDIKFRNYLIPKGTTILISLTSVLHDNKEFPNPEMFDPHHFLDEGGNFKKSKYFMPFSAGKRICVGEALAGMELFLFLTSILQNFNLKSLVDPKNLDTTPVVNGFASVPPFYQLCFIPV
# [2] = Kinetic solubility of the compound at pH 6.5; assay type: physicochemical; conditions: buffer, read-out: Kinetic_solubility
# [3] = Agonist activity at GPR119 receptor in hamster HIT-T15 cells assessed as intracellular cAMP level; assay type: cell-based; conditions: Cricetinae
# HIT-T15 = test: Agonist activity at GPR119 receptor in hamster HIT-T15 cells assessed as intracellular cAMP level relative to AR-231,453; assay type: cell-based; conditions: Cricetinae
# Mus musculus = test: Antihyperglycemic activity in C57Bl/6J mouse assessed as reduction of AUC (0 to 120 mins) of glucose excursion at 30 mg/kg, po administered 2 hrs before glucose challenge; assay type: functional; set-up: scale not given: the % may be the effect or the level left
# [4] = Oral bioavailability in mouse at 10 mg/kg; assay type: ADME, organism-based; conditions: in vivo
# Hepatocyte = test: Metabolic stability of the compound in mouse hepatocytes assessed as glutathione adduct formation; assay type: ADME, cell-based
# [5] = AUC in mouse at 10 mg/kg, po; assay type: ADME, organism-based; set-up: dose 10 mg/kg, route oral; conditions: plasma
# [6] = Cmax in mouse at 10 mg/kg, po; assay type: ADME, organism-based; set-up: dose 10 mg/kg, route oral; conditions: in vivo
# [7] = Clearance in mouse at 5 mg/kg, iv; assay type: ADME, organism-based; set-up: dose 5 mg/kg, route intravenous; conditions: in vivo
# [8] = Tmax in mouse at 10 mg/kg, po; assay type: ADME, organism-based; set-up: dose 10 mg/kg, route oral; conditions: in vivo
# [9] = AUC in mouse at 5 mg/kg, iv; assay type: ADME, organism-based; set-up: dose 5 mg/kg, route intravenous; conditions: plasma
# [10] = Volume of distribution in mouse at 5 mg/kg, iv; assay type: ADME, organism-based; set-up: dose 5 mg/kg, route intravenous; conditions: in vivo
# [11] = Half life in mouse at 5 mg/kg, iv; assay type: ADME, organism-based; set-up: dose 5 mg/kg, route intravenous; conditions: in vivo
# Chain of Cytochrome P450 3A4 (P08684 whole entry): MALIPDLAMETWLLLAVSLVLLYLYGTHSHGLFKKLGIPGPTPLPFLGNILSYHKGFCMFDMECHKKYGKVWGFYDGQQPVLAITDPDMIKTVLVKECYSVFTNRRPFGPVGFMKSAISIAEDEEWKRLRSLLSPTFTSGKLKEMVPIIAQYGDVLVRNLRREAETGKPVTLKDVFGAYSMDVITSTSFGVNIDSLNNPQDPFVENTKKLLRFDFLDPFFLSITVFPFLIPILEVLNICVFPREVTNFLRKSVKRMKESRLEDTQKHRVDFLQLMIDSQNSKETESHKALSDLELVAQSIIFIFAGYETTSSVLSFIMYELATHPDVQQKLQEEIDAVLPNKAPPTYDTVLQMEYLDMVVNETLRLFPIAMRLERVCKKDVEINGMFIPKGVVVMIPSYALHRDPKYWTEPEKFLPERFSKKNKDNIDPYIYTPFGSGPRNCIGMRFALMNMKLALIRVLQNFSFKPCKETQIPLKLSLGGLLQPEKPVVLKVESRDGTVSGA
SMILES,pEC50 [3],Emax (HIT-T15) [%],other results
CS(=O)(=O)c1ccc(Oc2ncnc3c2cnn3C2CCN(Cc3ccc(C(F)(F)F)cc3)CC2)cc1,7.44,59,pIC50 (Cytochrome P450 3A4): 5.74; IC20 (hERG (KCNH2)): 200 nM; microsomal CLint [1]: 114 µL/min/mg; pIC50 (Cytochrome P450 2C9): < 5.22; solubility kinetic [2]: < 1 µg/mL
COc1cc(OC)cc(Oc2ncnc3c2cnn3C2CCN(C(=O)OC(C)(C)C)CC2)c1,5.19,34,–
CC(C)(C)OC(=O)N1CCC(n2ncc3c(Nc4ccc(S(C)(=O)=O)cc4F)ncnc32)CC1,6.62,103,IC20 (hERG (KCNH2)): 2600 nM; microsomal CLint [1]: 70 µL/min/mg; pIC50 (Cytochrome P450 2C9): 6.05; solubility kinetic [2]: 8 µg/mL
CC(C)(C)OC(=O)N1CCC(n2ncc3c(Oc4cc(F)c(F)cc4F)ncnc32)CC1,7.06,95,–
CS(=O)(=O)c1ccc(Oc2ncnc3c2cnn3C2CCN(Cc3ccccc3)CC2)cc1,6.24,87,–
CS(=O)(=O)c1ccc(Oc2ncnc3c2cnn3C2CCN(Cc3cccc(OC(F)(F)F)c3)CC2)cc1,6.92,54,–
CC(C)(C)OC(=O)N1CCC(n2ncc3c(Nc4ccc(S(C)(=O)=O)cc4)ncnc32)CC1,5.85,105,–
CS(=O)(=O)c1ccc(Oc2ncnc3c2cnn3C2CCN(Cc3cccc(Cl)c3)CC2)cc1,6.55,83,–
CC(C)(C)OC(=O)N1CCC(n2ncc3c(Oc4ccccc4F)ncnc32)CC1,6.72,107,–
CS(=O)(=O)c1ccc(Oc2ncnc3c2cnn3C2CCN(C(=O)CCc3ccccc3)CC2)cc1,6.00,94,–
CC(C)(C)OC(=O)N1CCC(n2ncc3c(Oc4cccc(C(C)(C)C)c4)ncnc32)CC1,< 4.60,27,–
CS(=O)(=O)c1ccc(Oc2ncnc3c2cnn3C2CCN(Cc3ccc(Cl)cc3)CC2)cc1,6.24,73,–
CC(C)OC(=O)N1CCC(n2ncc3c(Nc4ccc(S(C)(=O)=O)cc4)ncnc32)CC1,5.24,92,–
CS(=O)(=O)c1ccc(Oc2ncnc3c2cnn3C2CCN(Cc3ccc(F)cc3)CC2)cc1,6.70,69,–
CC(C)(C)OC(=O)N1CCC(n2ncc3c(Oc4ccc(C(F)(F)F)cc4)ncnc32)CC1,< 4.60,27,–
CS(=O)(=O)c1ccc(Nc2ncnc3c2cnn3C2CCN(Cc3ccccc3)CC2)cc1,4.72,64,–
CC(C)(C)OC(=O)N1CCC(n2ncc3c(Oc4ccccc4)ncnc32)CC1,< 4.60,30,–
CC(C)(C)OC(=O)N1CCC(n2ncc3c(Oc4ccc(C(C)(C)C)cc4)ncnc32)CC1,< 4.60,13,–
CC(C)(C)OC(=O)N1CCC(n2ncc3c(Oc4ccccc4C#N)ncnc32)CC1,7.21,–,–
CC(C)(C)OC(=O)N1CCC(n2ncc3c(Oc4ccc(C#N)cc4)ncnc32)CC1,6.24,87,–
CC(C)(C)OC(=O)N1CCC(n2ncc3c(Nc4cc(F)c(F)cc4F)ncnc32)CC1,6.28,97,–

# More lines, main results first:
pEC50 [3],SMILES,Emax (HIT-T15) [%],other results
6.48,CC(C)CC(=O)N1CCC(n2ncc3c(Oc4ccc(S(C)(=O)=O)cc4)ncnc32)CC1,59,pIC50 (Cytochrome P450 3A4): < 4.60; IC20 (hERG (KCNH2)): 2700 nM; microsomal CLint [1]: 29 µL/min/mg; pIC50 (Cytochrome P450 2C9): < 4.60; solubility kinetic [2]: 32 µg/mL
6.00,CC(C)C(=O)N1CCC(n2ncc3c(Oc4ccc(S(C)(=O)=O)cc4)ncnc32)CC1,60,–
7.74,CS(=O)(=O)c1ccc(Oc2ncnc3c2cnn3C2CCN(C(=O)OCC(Cl)(Cl)Cl)CC2)cc1,90,–
6.82,CC(C)OC(=O)N1CCC(n2ncc3c(Oc4ccc(S(C)(=O)=O)cc4)ncnc32)CC1,92,Activity (Mus musculus): 44%; bioavailability [4]: 82%; Stability (Hepatocyte): Unstable; AUC [5]: 41300 ng·h/mL; Cmax [6]: 13.2 µM; clearance [7]: 3.3 mL/min/kg; Tmax [8]: 4 h; AUC [9]: 25300 ng·h/mL; Vd [10]: 0.46 L/kg; half-life [11]: 96 min; pIC50 (Cytochrome P450 3A4): < 5.22; IC20 (hERG (KCNH2)): 500 nM; microsomal CLint [1]: 85 µL/min/mg; pIC50 (Cytochrome P450 2C9): < 5.22; solubility kinetic [2]: < 1 µg/mL
6.27,CC(C)(C)OC(=O)N1CCC(n2ncc3c(Oc4ccc(F)cc4)ncnc32)CC1,82,–
6.19,CCOC(=O)N1CCC(n2ncc3c(Oc4ccc(S(C)(=O)=O)cc4)ncnc32)CC1,81,–
6.57,CC(C)(C)CC(=O)N1CCC(n2ncc3c(Oc4ccc(S(C)(=O)=O)cc4)ncnc32)CC1,58,–
7.00,CC(C)(C)COC(=O)N1CCC(n2ncc3c(Oc4ccc(S(C)(=O)=O)cc4)ncnc32)CC1,93,–
6.80,CC(=O)c1ccc(Oc2ncnc3c2cnn3C2CCN(C(=O)OC(C)(C)C)CC2)cc1,83,–
7.37,CC(C)(C)OC(=O)N1CCC(n2ncc3c(Oc4ccc(S(C)(=O)=O)cc4)ncnc32)CC1,101,Activity (Mus musculus): inactive; pIC50 (Cytochrome P450 3A4): 5.51; IC20 (hERG (KCNH2)): 2700 nM; microsomal CLint [1]: 86 µL/min/mg; pIC50 (Cytochrome P450 2C9): < 5.52; solubility kinetic [2]: < 1 µg/mL
6.96,CC(C)COC(=O)N1CCC(n2ncc3c(Oc4ccc(S(C)(=O)=O)cc4)ncnc32)CC1,84,–
